According to patent publication US11974969B2, “Artificially synthesized sphingosine derivative lipoid monomer and use of same for delivering nucleic acid” (INSTITUTE OF BASIC MEDICAL SCIENCES CHINESE ACADEMY OF …, priority 2018, dated 2024):

Test system: HEK293T cells
Test: Flow cytometry (CFlow): delivery of FAM-labeled single-stranded PGY-sRNA-6 into HEK293T cells by different concentrations of single sphingosine derivative (Example 1)
Type: cell-based, human
Details: for delivery of single-stranded PGY-sRNA-6 into 293T cells (fluorescence shift compared to free uptake group): different concentrations: 3.75, 12.5, 37.5 μg single lipid, 0.1 nmol FAM-labeled sRNA, final 100 nM, 9 hours, flow cytometry; for Lipid delivery group (different concentrations of lipids) 3.75 μg/mL: single sphingosine derivative 3.75 μg/mL; for Lipid delivery group (different concentrations of lipids) 3.75 μg/mL / Lipid delivery group (different concentrations of lipids) 12.5 μg/mL / Lipid delivery group (different concentrations of lipids) 37.5 μg/mL: FAM-labeled PGY-ssRNA-6 100 nM, 293T cells, fluorescence shift by flow cytometry; for Lipid delivery group (different concentrations of lipids) 12.5 μg/mL: single sphingosine derivative 12.5 μg/mL; for Lipid delivery group (different concentrations of lipids) 37.5 μg/mL: single sphingosine derivative 37.5 μg/mL
Procedure: 2.1 5 μl of small RNA (Ribobio, 20 μM, as shown in Table 2) and 95 μL of DEPC (Sigma) treated water were added into a 1.5 ml EP tube and mixed well. Then a certain amount of single lipid or lipid composition in chloroform solution (as shown in Table 1) was added and fully mixed by sucking and blowing;
2.2 The system was fully mixed and was heated in a water bath at 90° C. for 15 minutes;
2.3 The system was taken out and cooled down to room temperature.
4.3 The human embryonic kidney cell line HEK293T and human monocyte THP-1 cells used in the experiment were cultured to logarithmic growth phase, and then plated into 12-well plates with a cell density of 6×10^5/1 mL medium/well. The 12-well plate (1 mL medium/well) was incubated overnight (12 h) at 37° C., followed by subsequent experiments.
4.4 The experiment groups were as follows: • 1) Naïve group: untreated cells. This group served as a blank control group. • 2) Free uptake group: […] of 5′-FAM labeled small RNA solution (storage concentration is 20 μM) was directly added. This group served as a negative control group; • 3) Lipid nucleic acid mixture treatment group: The mixture of the lipid prepared in step 2 and the 5′-FAM-labeled small RNA was added into the cells and mixed well. The final concentration of small RNA is 100 nM.
4.5 After co-incubation with cells for 6 h/9 h, the cells were washed three times with PBS. The cells were re-suspended with PBS (self-prepared). The flow cytometer Accuri® C6 instrument (purchased from BD, US) was used to detect the fluorescence intensity of the cells in the sample wells. Implementation method: the software CFlow Plus used in the flow cytometer Accuri® C6 instrument detection was opened, the instrument was washed with cleaning solution for 3 minutes, and then washed with double-distilled water for 5 minutes. The injection of blank group samples was started while setting the number of cells unlimited. The injection of Naïve group samples was stopped when the number of cells detected was 10000 events. The live cell group in the fluorescence spectrum (abscissa: FSC-A, ordinate: SSC-A) was circled as gate P1. With the number of cells set as limited, the detection was stopped when the number of cells in gate P1 reached 10000 events. The fluorescence shift value was obtained in the fluorescence spectrum (abscissa: fluorescence channel FLA-1, ordinate: SSC-A).
1) Conditions of the boiling method: to 100 μL FAM-labeled single-stranded PGY-sRNA-6 solution was added corresponding amount of lipid solution, and heated at 90° C. for 15 min;
2) Experimental conditions: the final concentration of small RNA was 100 nM. 9 hours after being added to the cells, the amount of single-stranded PGY-sRNA-6 that entered into the cells was compared by detecting the fluorescence shift using flow cytometry technology. For the detailed protocols, see “Flow cytometry technology (CFlow) determined the uptake amount of nucleic acid that is delivered into cells by lipid”. All experiments were performed in triplicates.

Row | Compound | delivery of single-stranded PGY-sRNA-6 into 293T cells (fluorescence shift compared to free uptake group) | Lipid delivery group (different concentrations of lipids) 3.75 μg/mL [%] | Lipid delivery group (different concentrations of lipids) 12.5 μg/mL [%] | Lipid delivery group (different concentrations of lipids) 37.5 μg/mL [%]
1 | CCCCCCCCCCCCCCC[C@@H](O)[C@@H](N)CO (stereo in doubt) [So-71, (2S,3R)-2-amino-1,3-Octadecanediol] | deliver | 3.60 | 6.20 | 8.80
2 | CCCCCCCCCCCCCCCCC(=O)N[C@@H](CO)[C@H](O)CCCCCCCCCCCCCCC [So-1, N-heptadecanoyl-D-erythro-Dihydrosphingosine] | deliver | 1.60 | 1.50 | 1.40
3 | CCCCCCCCCCCCC/C=C/[C@@H](O)[C@H](CO)NC(=O)CCCCCNC(=O)CCCC[C@@H]1SC[C@@H]2NC(=O)N[C@@H]21 [So-3, N-hexanoyl-biotin-D-erythro-Sphingosine] | deliver | 1.40 | 2.10 | 3.40
4 | CCCCCCCCCCCCC/C=C/[C@@H](O)[C@H](CO)N(C)C [So-4, N,N-Dimethylsphingosine (d18:1)] | deliver | 1.70 | 2.20 | 0.00
5 | CCCCCCCCCCCCC/C=C/[C@@H](O)[C@@H](N)COP(=O)(O)O [So-5, Sphingosine-1-Phosphoric Acid] | deliver | 2.80 | 1.60 | 2.40
6 | CCC/C=C\CCCCCCCCCC[C@@H](O)[C@H](C)N [So-7, 14Z-1-Deoxysphingosine (d18:1)] | deliver | 1.20 | 0.20 | 4.30
7 | CCCCCCCCCCCCCCCC(=O)C(N)CO.Cl (centres unmarked) [So-8, 3-keto Dihydrosphingosine] | deliver | 3.60 | 4.50 | 1.90
8 | CCCCCCCCCCCCCCCCCC(=O)N[C@@H](CO)[C@H](O)CCCCCCCCCCCCCCC [So-9, N-octadecanoyl-D-erythro-Dihydrosphingosine] | deliver | 3.30 | 2.60 | 2.70
9 | CCCCCCCCCCCCCCCC(=O)N[C@@H](CO)[C@H](O)CCCCCCCCCCCCCCC [So-10, N-hexadecanoyl-D-erythro-Dihydrosphingosine] | deliver | 2.10 | 3.40 | 2.50
10 | CCCCCCCCCCCCCCC[C@@H](O)[C@H](CO)N(C)C [So-11, N,N-dimethyl-D-erythro-Dihydrosphingosine] | deliver | 3.60 | 7.40 | 12.70
11 | CCCCCCCCCCCCCCC[C@@H](O)[C@H](CO)NC(=O)CCCCCCC [So-12, N-octanoyl-D-erythro-Dihydrosphingosine] | deliver | 5.60 | 2.30 | 1.60
12 | CCCCCCCCCCCCC/C=C/[C@@H](O)[C@H](CO)NC(=O)CCCCCCCCCCC [So-13, N-Lauroyl-D-erythro-Sphingosine] | deliver | 3.40 | 3.20 | 5.20
13 | CCCCCCCCCCCCC/C=C/[C@@H](O)[C@H](CO)NC(=O)CCCCCCCCCCCCCCCCCCCCCCCCCCCCCO [So-14, ω-hydroxy-C30 Sphingosine (d18:1/30:0)] | deliver | 4.40 | 3.30 | 4.30
14 | CCCCCCCCCCCCCC[C@@H](O)[C@@H](N)COP(=O)(O)O [So-15, dihydro-D-erythro-Sphingosine-C17-1-phosphate] | deliver | 4.70 | 1.90 | 2.40
15 | CCCCCCCCCCCCC/C=C/[C@@H](O)[C@@H](N)CO [So-26, D-erythro-Sphingosine C-18] | deliver | 0.20 | 3.80 | 0.50
16 | CCCCCCCCCCCCCCC[C@H](O)[C@H](N)CO [So-46, C18 L-erythro Sphinganine (d18:0)] | deliver | 0.20 | 0.30 | 6.90
17 | CCCCCCCCCCCCC/C=C/[C@@H](O)[C@@H](N)CO[C@@H]1O[C@H](CO)[C@@H](O)[C@H](O)[C@H]1O [So-49, 1-β-D-Glucosylsphingosine (synthetic)] | deliver | 0.50 | 1.70 | 7.40
18 | CCCCCCCCCCCC/C=C/[C@@H](O)[C@@H](N)CO [So-53, D-erythro-Sphingosine C-17] | deliver | 0.20 | 0.30 | 6.70
19 | CCCCCCCCCCCCCC=CC(O)C(COP(=O)(O)OCCN)NC(C)=O (centres unmarked) [So-60, N-Acetyl-Sphingosylphosphorylethanolamine] | deliver | 7.10 | 7.10 | 6.20
20 | CCCCCCCCCCCCC/C=C/[C@@H](O)[C@H](CO[C@@H]1O[C@H](CO)[C@H](O)[C@H](O)[C@H]1O)NC(=O)CCCCCCCCCCCCCC [So-61, N-[(1S,2R,3E)-1-[(β-D-galactopyranosyloxy)methy1]-2-hydroxy-3-heptadecen-1-yl]-pentadecanamide] | deliver | 7.40 | 8.10 | 7.00
